How the values were obtained:
Hepatitis B virus = experiment: Antiviral activity against Hepatitis B virus infected in human HepG2.2.15 cells assessed as inhibition of HBV DNA replication incubated for 10 day by qPCR analysis; type: functional, organism-based; details: HepG2.2.15, 240 h
[1] = Cytotoxicity against human HepG2.2.15 cells assessed as inhibition of cell proliferation by CCK8 assay; type: toxicity, cell-based, HepG2 2.2.15
[2] = Selectivity index, the ratio of CC50 for human HepG2.2.15 cells to EC50 for antiviral activity against HBV in human HepG2.2.15 cells assessed as inhibition of HBV DNA replication; type: toxicity, cell-based; details: read-out: Ratio CC50/EC50
[3] = (§1) Cytotoxicity against human LX2 cells assessed as cell growth inhibition at 10 uM incubated for 48 hrs by CCK8 assay relative to control; type: toxicity, cell-based, LX-2; details: LX2 cells, read-out: GI
LX-2 [4] = experiment: Cytotoxicity against human LX2 cells at 5 uM incubated for 48 hrs by CCK8 assay; type: toxicity, cell-based; details: lx-2, 48 h
[5] = Drug uptake in Sprague-Dawley rat kidney at 10 mg/kg, iv measured after 1 to 6 hrs by LC-MS/MS analysis; type: ADME, organism-based; details: in vivo, time 1-6 hrs
[6] = Clearance in Sprague-Dawley rat at 50 mg/kg, po by LC-MS analysis; type: ADME, organism-based; details: in vivo
[7] = Toxicity in Kunming mouse assessed as effect on liver colour at 100 to 200 mg/kg, iv once daily for 5 days; type: organism-based; details: in vivo, 120 h, dose 100-200 mg/kg, time 5 day
[8] = Oral bioavailability in Sprague-Dawley rat at 50 mg/kg by LC-MS analysis; type: ADME, organism-based; details: in vivo
[9] = AUC (0 to infinity) in Sprague-Dawley rat at 5 mg/kg, iv by LC-MS analysis; type: ADME, organism-based; details: in vivo
[10] = Half-life in Sprague-Dawley rat at 5 mg/kg, iv by LC-MS analysis; type: ADME, organism-based; details: in vivo
[11] = Clearance in Sprague-Dawley rat at 5 mg/kg, iv by LC-MS analysis; type: ADME, organism-based; details: in vivo
[12] = Cmax in Sprague-Dawley rat at 5 mg/kg, iv by LC-MS analysis; type: ADME, organism-based; details: in vivo
[13] = Cmax in Sprague-Dawley rat at 50 mg/kg, po by LC-MS analysis; type: ADME, organism-based; details: in vivo
[14] = Tmax in Sprague-Dawley rat at 5 mg/kg, iv by LC-MS analysis; type: ADME, organism-based; details: in vivo
[15] = Toxicity in Kunming mouse assessed as effect on kidney weight at 100 to 200 mg/kg, iv once daily for 5 days; type: organism-based; details: in vivo, 120 h, dose 100-200 mg/kg, time 5 day
[16] = Half-life in Sprague-Dawley rat at 50 mg/kg, po by LC-MS analysis; type: ADME, organism-based; details: in vivo
[17] = AUC (0 to infinity) in Sprague-Dawley rat at 50 mg/kg, po by LC-MS analysis; type: ADME, organism-based; details: in vivo
[18] = Metabolic stability in human liver microsomes assessed as half-life measured upto 60 mins by LC-MS/MS analysis; type: ADME, Microsome
[19] = Toxicity in Kunming mouse assessed as histopathological changes in heart at 200 mg/kg, iv once daily for 5 days by H and E staining based analysis; type: organism-based; details: in vivo, 120 h, time 5 day
[20] = Toxicity in Kunming mouse assessed as maximum tolerated dose administered intravenously as once daily dose for 5 days; details: in vivo, route iv, time 5 day
LX-2 [21] = experiment: as §1; type: toxicity, cell-based; details: lx-2, 48 h, 10 µM
[22] = Metabolic stability in rat liver microsomes assessed as half-life measured upto 60 mins by LC-MS/MS analysis; type: ADME, Microsome
[23] = AUC (0 to t) in Sprague-Dawley rat at 50 mg/kg, po by LC-MS analysis; type: ADME, organism-based; details: in vivo
[24] = Tmax in Sprague-Dawley rat at 50 mg/kg, po by LC-MS analysis; type: ADME, organism-based; details: in vivo
[25] = Toxicity in Kunming mouse assessed as effect on liver weight at 100 to 200 mg/kg, iv once daily for 5 days; type: organism-based; details: in vivo, 120 h, dose 100-200 mg/kg, time 5 day
[26] = Toxicity in Kunming mouse assessed as histopathological changes in liver at 200 mg/kg, iv once daily for 5 days by H and E staining based analysis; type: organism-based; details: in vivo, 120 h, time 5 day
[27] = AUC (0 to t) in Sprague-Dawley rat at 5 mg/kg, iv by LC-MS analysis; type: ADME, organism-based; details: in vivo
[28] = Toxicity in Kunming mouse assessed as effect on kidney colour at 100 to 200 mg/kg, iv once daily for 5 days; type: organism-based; details: in vivo, 120 h, dose 100-200 mg/kg, time 5 day
[29] = Toxicity in Kunming mouse assessed as effect on body weight at 100 to 200 mg/kg, iv administered once daily for 5 days; type: organism-based; details: in vivo, 120 h, dose 100-200 mg/kg, time 5 day
[30] = Toxicity in Kunming mouse assessed as effect on heart size at 100 to 200 mg/kg, iv once daily for 5 days; type: organism-based; details: in vivo, 120 h, dose 100-200 mg/kg, time 5 day
[31] = Toxicity in Kunming mouse assessed as effect on heart weight at 100 to 200 mg/kg, iv once daily for 5 days; type: organism-based; details: in vivo, 120 h, dose 100-200 mg/kg, time 5 day
[32] = Toxicity in Kunming mouse assessed as effect on heart colour at 100 to 200 mg/kg, iv once daily for 5 days; type: organism-based; details: in vivo, 120 h, dose 100-200 mg/kg, time 5 day
[33] = Toxicity in Kunming mouse assessed as effect on liver size at 100 to 200 mg/kg, iv once daily for 5 days; type: organism-based; details: in vivo, 120 h, dose 100-200 mg/kg, time 5 day
[34] = Drug uptake in Sprague-Dawley rat at 50 mg/kg, po or 5 mg/kg, iv measured after 2 to 3 hrs by LC-MS/MS analysis; type: ADME, organism-based; details: in vivo, time 2-3 hrs
[35] = Toxicity in Kunming mouse assessed as effect on kidney size at 100 to 200 mg/kg, iv once daily for 5 days; type: organism-based; details: in vivo, 120 h, dose 100-200 mg/kg, time 5 day
[36] = Toxicity in Kunming mouse assessed as histopathological changes in kidney at 200 mg/kg, iv once daily for 5 days by H and E staining based analysis; type: organism-based; details: in vivo, 120 h, time 5 day
[37] = Prodrug release in human HepG2 cells assessed as adefovir release by mass spectrometric analysis; type: ADME, cell-based
[38] = Prodrug release in human HepG2 cells assessed as tenofovir release measured over 1 hrs by HPLC analysis; type: ADME, cell-based; details: hepg2, 1 h
[39] = Prodrug release in human HepG2 cells assessed as adefovir release measured over 1 hrs by HPLC analysis; type: ADME, cell-based; details: hepg2, 1 h
[40] = Drug metabolism in plasma of Sprague-Dawley rat assessed as hydrolyzed metabolite formation measured after 5 hrs by HPLC analysis; type: ADME, cell-free
[41] = Prodrug release in human HepG2 cells assessed as tenofovir release by mass spectrometric analysis; type: ADME, cell-based

| Compound | EC50 (Hepatitis B virus) | CC50 [1] | selectivity ratio [2] | inhibition at 48 h, 10 µM [3] | Activity (LX-2 [4]) | Drug uptake [5] | CL/F [6] | Activity [7] | bioavailability [8] | AUC(0-inf) [9] | half-life [10] | clearance [11] | Cmax [12] | Cmax [13] | Tmax [14] | Activity [15] | half-life [16] | AUC(0-inf) [17] | half-life [18] | Activity [19] | also measured |
| --- | --- | --- | --- | --- | --- | --- | --- | --- | --- | --- | --- | --- | --- | --- | --- | --- | --- | --- | --- | --- | --- |
| CC(C)OC(=O)OCOP(=O)(CO[C@H](C)Cn1cnc2c(N)ncnc21)OCOC(=O)OC(C)C.O=C(O)/C=C/C(=O)O [TENOFOVIR DISOPROXIL FUMARATE] | 188 nM | 8200 nM | 43.7 | ~30% | Non-toxic | Active |  |  |  |  |  |  |  |  |  |  |  |  |  |  |  |
| CC(=O)N[C@H]1[C@H](OCCCCC(=O)NCCOCCOCCOCCOCCn2cc(COP(=O)(COCCn3cnc4c(N)ncnc43)OCOC(=O)C(C)(C)C)nn2)O[C@H](CO)[C@H](O)[C@H]1O (some centres not stated) | 260 nM | > 100000 nM | > 384 |  | Toxic |  | 252 mL/min/kg | Non-toxic | 16.6% | 2000 ng·h/mL | 46.8 min | 42.1 mL/min/kg | 2010 ng/mL | 1290 ng/mL | 1.98 min | Non-toxic | 191 min | 3310 ng·h/mL | 14.9 min | Non-toxic | MTD at 120 h [20]: ~200 mg/kg; Activity (LX-2 [21]): Toxic; half-life [22]: 2.33 min; AUC(0-t) [23]: 3300 ng·h/mL; Tmax [24]: 40.2 min; Activity [25]: Non-toxic; Activity [26]: Non-toxic; AUC(0-t) [27]: 1990 ng·h/mL; Activity [28]: Non-toxic; Activity [29]: Non-toxic; Activity [30]: Non-toxic; Activity [31]: Non-toxic; Activity [32]: Non-toxic; Activity [33]: Non-toxic; Drug uptake [34]: Not_active; Activity [35]: Non-toxic; Activity [36]: Non-toxic |
| CC(=O)N[C@H]1[C@H](OCCCCC(=O)NCCOCCOCCOCCOCCn2cc(COP(=O)(CO[C@H](C)Cn3cnc4c(N)ncnc43)OCOC(=O)C(C)(C)C)nn2)O[C@H](CO)[C@H](O)[C@H]1O (some centres not stated) | 214 nM | > 100000 nM | > 468 |  | Toxic |  | 172 mL/min/kg | Non-toxic | 23.4% | 2130 ng·h/mL | 67.2 min | 40.7 mL/min/kg | 2030 ng/mL | 1500 ng/mL | 1.98 min | Non-toxic | 192 min | 4930 ng·h/mL | 12.4 min | Non-toxic | MTD at 120 h [20]: ~200 mg/kg; Activity (LX-2 [21]): Toxic; half-life [22]: 2.13 min; AUC(0-t) [23]: 4900 ng·h/mL; Tmax [24]: 45 min; Activity [25]: Non-toxic; Activity [26]: Non-toxic; AUC(0-t) [27]: 2100 ng·h/mL; Activity [28]: Non-toxic; Activity [29]: Non-toxic; Activity [30]: Non-toxic; Activity [31]: Non-toxic; Activity [32]: Non-toxic; Activity [33]: Non-toxic; Drug uptake [34]: Not_active; Activity [35]: Non-toxic; Activity [36]: Non-toxic |
| CC(C)(C)C(=O)OCOP(=O)(COCCn1cnc2c(N)ncnc21)OCOC(=O)C(C)(C)C [ADEFOVIR DIPIVOXIL] | 240 nM | 10700 nM | 44.6 | ~30% | Non-toxic | Active |  |  |  |  |  |  |  |  |  |  |  |  |  |  |  |
| CC(=O)N[C@H]1[C@H](OCCCCC(=O)NCCCNC(=O)CCOCC(COCCC(=O)NCCCNC(=O)CCCCO[C@@H]2O[C@H](CO)[C@H](O)[C@@H](O)[C@H]2NC(C)=O)(COCCC(=O)NCCCNC(=O)CCCCO[C@@H]2O[C@H](CO)[C@H](O)[C@@H](O)[C@H]2NC(C)=O)NC(=O)CCC(=O)NCCOCCOCCOCCOCCn2cc(COP(=O)(O)COCCn3cnc4c(N)ncnc43)nn2)O[C@H](CO)[C@H](O)[C@H]1O |  |  |  |  |  |  |  |  |  |  |  |  |  |  |  |  |  |  |  |  | Drug metabolism [37]: metabolite_detected; Drug metabolism [38]: metabolite_detected; Drug metabolism [39]: metabolite_detected; Drug metabolism [40]: metabolite_notdetected; Drug metabolism [41]: metabolite_detected |
| CC(=O)N[C@H]1[C@H](OCCCCC(=O)NCCCNC(=O)CCOCC(COCCC(=O)NCCCNC(=O)CCCCO[C@@H]2O[C@H](CO)[C@H](O)[C@@H](O)[C@H]2NC(C)=O)(COCCC(=O)NCCCNC(=O)CCCCO[C@@H]2O[C@H](CO)[C@H](O)[C@@H](O)[C@H]2NC(C)=O)NC(=O)CCC(=O)NCCOCCOCCOCCOCCn2cc(COP(=O)(O)CO[C@H](C)Cn3cnc4c(N)ncnc43)nn2)O[C@H](CO)[C@H](O)[C@H]1O (racemic) |  |  |  |  |  |  |  |  |  |  |  |  |  |  |  |  |  |  |  |  | Drug metabolism [37]: metabolite_detected; Drug metabolism [38]: metabolite_detected; Drug metabolism [39]: metabolite_detected; Drug metabolism [40]: metabolite_notdetected; Drug metabolism [41]: metabolite_detected |

Reference: ChEMBL document CHEMBL6153042, “Glycoconjugates of adefovir and tenofovir as asialoglycoprotein-mediated Anti-HBV prodrugs with enhanced liver targeting” (Eur J Med Chem, 2025)
